Reference: paper PMC9007951, “Systematically evaluating DOTATATE and FDG as PET immuno-imaging tracers of cardiovascular inflammation” (Scientific Reports, 2022)

Tests used:
[1] = mice; cited from earlier work
Source text: This feature is important when performing in vivo imaging and especially in the vasculature, whose signal can be easily contaminated by the blood pool because of partial volume errors. […] We further used the combination of in ...

atherosclerotic rabbits = assay: In vivo PET/MR imaging of aortic inflammation in rabbits; set-up: species or system New Zealand White rabbits; settings: for SUVmax abdominal aorta: PET/MRI, median
Source text: For the rabbit studies, 3 months old male New Zealand White (NZW) rabbits (N = 47) were purchased from Charles River Laboratories (Wilmington, MA). Randomly assigned control rabbits (N = 11) were kept on chow diet and imaged with PET/MR. Among these some animals were euthanized for biodistribution assays (N = 6) or used for time-activity characterization of aorta signal (N = 3). For the atherosclerosis model, remaining rabbits (N = 36) were placed on Western diet (initial 8 weeks on regular chow enriched with 0.3% cholesterol and 4.7% coconut oil, and the remaining time period on 0.15% enriched cholesterol diet from Research diets, Inc. Brunswick, NJ). In order to induce atherosclerotic lesions, these rabbits were subjected to two endothelial denudations of the aorta through the right and left femoral artery at 2 and 6 weeks after diet initiation, respectively, as described previously. Briefly, femoral artery angioplasty was performed under fluoroscopic guidance using a 4F-Fogarty embolectomy catheter. Once catheter is inserted, catheter is positioned in the thoracic descending aorta region. The balloon was then inflated to 2 atm. Catheter is then pulled back over the entire length of the aorta down to the iliac bifurcation, and the pullback procedure is repeated for two additional times. Catheter is then removed, and femoral artery is ligated. Rabbits with atherosclerosis were imaged 4 months after diet initiation (N = 36). Among these animals some were euthanized for ex vivo biodistribution analyses (N = 9), used for time-activity characterization of aorta signal (N = 3) or near infra-red imaging ([…]). The remaining atherosclerotic rabbits were fed a Western diet for an additional 3 months (N = 9) to advance atherosclerosis. At the end of the 3-month period, these rabbits were imaged and euthanized.
In vivo imaging in rabbits was performed on a 3 Tesla Biograph mMR (Siemens, Erlangen, Germany) Positron Emission Tomography/Magnetic Resonance Imaging (PET/MRI) clinical scanner. To establish the optimal imaging time-point for [^68Ga]Ga-DOTATATE aortic imaging in this animal model, 5 rabbits underwent dynamic PET imaging for 3 h immediately after injection of approximately 190 MBq of the tracer. Rabbits where injected intravenously via the ear vein with approximately 190 MBq of either [^18F]F- FDG or [^68Ga]Ga-DOTATATE. Rabbits undergoing [^18F]F-FDG scans were fasted for 3–4 h before injection to avoid tracer uptake in the bowels, as previously validated. […]
Using OsiriX v5.6 software (OsiriX Foundation, Geneva, Switzerland), regions of interest (ROIs) were drawn to determine organ radioactivity concentration. […]

[2] = Ex vivo autoradiography of heart and aorta; assay type: in vivo, mice; settings: for ratio between the signal in infarcted and remote myocardium: MI mice, N = 4 per group
Description: Tissues (heart and aorta) were placed in a film cassette against a phosphorimaging plate (BASMS-2325, Fujifilm) at − 20 °C to determine the regional radioactivity distribution. Exposure time was optimized to dose, tracer, and tissue uptake differences. Tissues from the heart of [^18F]F-FDG injected animals were exposed for 5 min, [^18F]F-FDG infused aortas were exposed for 30 min and tissues from animals in the [^64Cu]Cu-DOTATATE group were exposed for 60 min. The plates were read at a pixel resolution of 25 μm with a Typhoon 7000IP plate reader (GE Healthcare, Pittsburgh, PA). Images were analyzed using ImageJ software v1.52 (Madison, WI).

Row | SUVmax abdominal aorta (atherosclerotic rabbits; athero4mo rabbits, circulation 120 min ([^68Ga]Ga-DOTATATE, N = 32) or 180 min ([^18F]F-FDG, N = 27)) | SUVmax abdominal aorta (atherosclerotic rabbits; athero7mo rabbits, N = 7) | SUVmax abdominal aorta (atherosclerotic rabbits; control rabbits, circulation 120 min ([^68Ga]Ga-DOTATATE, N = 10) or 180 min ([^18F]F-FDG, N = 11)) | ratio between the signal in infarcted and remote myocardium [2] | signal in atherosclerotic plaques compared to healthy (no plaque) areas of the aorta ([2]; atherosclerotic mice, N = 4) | Compound | blood half-life [1] [min] | change of tracer accumulation (SUVmax abdominal aorta) athero7mo vs athero4mo (atherosclerotic rabbits; rabbits kept on Western Diet for 7 months, paired analysis, N = 7, p > 0.9999)
1 | 0.446 | 0.515 | 0.349 | ~1 |  | OC[C@H]1OC(O)[C@H]([18F])[C@@H](O)[C@@H]1O (some centres unmarked) [[^18F]F-FDG, [^18F]F-fluorodeoxyglucose] | 5.1 | 
2 |  |  |  |  |  | C[C@@H](O)[C@H](NC(=O)[C@@H]1CSSC[C@H](NC(=O)[C@@H](Cc2ccccc2)NC(=O)CN2CCN(CC(=O)O)CCN(CC(=O)O)CCN(CC(=O)O)CC2)C(=O)N[C@@H](Cc2ccc(O)cc2)C(=O)N[C@H](Cc2c[nH]c3ccccc23)C(=O)N[C@@H](CCCCN)C(=O)N[C@@H]([C@@H](C)O)C(=O)N1)C(=O)O [[^68Ga]Ga-DOTATATE, metal not drawn] |  | did not detect a further increase in tracer accumulation
3 |  |  |  | approximately 2 | twofold higher | C[C@@H](O)[C@H](NC(=O)[C@@H]1CSSC[C@H](NC(=O)[C@@H](Cc2ccccc2)NC(=O)CN2CCN(CC(=O)O)CCN(CC(=O)O)CCN(CC(=O)O)CC2)C(=O)N[C@@H](Cc2ccc(O)cc2)C(=O)N[C@H](Cc2c[nH]c3ccccc23)C(=O)N[C@@H](CCCCN)C(=O)N[C@@H]([C@@H](C)O)C(=O)N1)C(=O)O [[^64Cu]Cu-DOTATATE, metal not drawn] |  | 
